Molecules are shown by their SMILES. Where only a bound is given, the exact number is not on record here.

The values below come from patent US20220227782A1, “COMPOUND FOR INHIBITING RORyt ACTIVITY, PREPARATION METHOD THEREFOR AND APPLICATION THEREOF” (CELLREGEN (BEIJING) LIFE SCIENCE AND TECHNOLOGY CO., LTD., priority 2019, published 2022).

In data set [1] the target is T1, RORγt (Homo sapiens, UniProt P51449).
T1 construct: half maximal effective concentration against RORγt-LBD+-Jurkat cells; expressed in transfected cells; host or cells: Jurkat
T1 sequence (P51449 269-508 limits assumed): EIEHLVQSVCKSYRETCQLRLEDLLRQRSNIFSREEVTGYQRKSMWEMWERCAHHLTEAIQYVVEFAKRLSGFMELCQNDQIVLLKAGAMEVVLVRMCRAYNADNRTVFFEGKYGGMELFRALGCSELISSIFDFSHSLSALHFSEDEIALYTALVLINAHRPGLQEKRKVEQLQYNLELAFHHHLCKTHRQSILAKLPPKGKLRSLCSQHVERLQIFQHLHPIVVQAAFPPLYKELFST
The data set is described as follows: EC50 test, inhibition of RORγt transcription activity (luciferase activity reporter system) in RORγt-LBD+-Jurkat cells. Format: cell-based. The following applies: for EC50: half maximal effective concentration against RORγt-LBD+-Jurkat cells. The text has this:
(§1) EC50 and CC50 tests: EC50 (half maximal (50%) effective concentration) is a half maximal effective concentration against RORγt-LBD+-Jurkat cells, and CC50 (median (50%) cytotoxic concentration) is a median cytotoxic concentration against RORγt-LBD+-Jurkat cells.

Data set [2] can be described thus: CC50 test, median cytotoxic concentration against RORγt-LBD+-Jurkat cells. The following applies: human. Format: cell-based.
Excerpt: as §1

Data set [3] has as its system RORγt, IL17A, IL-17F mRNA. The data set is described as follows: mRNA expression of RORγt, IL17A and IL-17F in Th17 cell differentiation in vitro. The class given is cell-based. The following applies: FIG. 22, 1.56, 3.12 and 6.25 μM compound vs solvent group. Here is the method: (§2) In the figure, the results of solvent group, 1.56 μM compound group, 3.12 μM compound group, and 6.25 μM compound group are shown from left to right.

Data set [4] concerns IL-17A. Briefly: Intracellular protein expression of IL-17A (flow cytometer), Th17 cells. The following applies: FIG. 21; 1.56, 3.12 and 6.25 μM compound vs solvent group. The class given is cell-based.
Excerpt: The compound for inhibiting RORγt activity as described above may be used in preparation of a therapeutic formulation for the treatment of autoimmune diseases, in preparation of a formulation that inhibits formation of a Th17 cell, in preparation of a formulation that inhibits the RORγt transcription activity, or in preparation of a formulation that inhibits transcription and expression of IL17A gene and/or IL17F gene. The compounds having the structural formula (A) has a good inhibitory effect on RORγt activity. […] Therefore, the compound may be used to produce a formulation of corresponding activity inhibitor, and provide a leading structure for the development of therapeutic drugs for autoimmune diseases.
as §2
In general terms: A flow cytometer gives signals particle by particle.

Data set [5] has as its system EAE. The following applies: high concentrations (40 mg/kg); cited from earlier work.
In data set [6] the test system is other RORs. The following applies: cited from earlier work.
The subject of data set [7] is Th17 cells. The following applies: cited from earlier work.

As for `Cc1nc(Sc2nnnn2-c2ccccc2)c2c3c(sc2n1)CCCC3` [Compound 6], the 50% effective concentration (EC50) (commonly the concentration at which the effect is half-maximal) in data set [1] came to 2.79 µM. For the same compound, in data set [2], the midpoint of cytotoxicity, the CC50, lay at 3.98 µM. For the same compound, the “inhibition of mRNA expression of RORγt, IL17A and IL-17F (in words)” value (“inhibition of mRNA expression of RORγt” for short) in data set [3] was “significant inhibitory effects”. Moreover, the “inhibition of intracellular protein expression of IL-17A (in words)” value (“inhibition … of IL-17A (in words)” for short) in data set [4] is “significant inhibitory effects”.

As to `Cc1nc(Sc2nnnn2-c2ccccc2)c2c3c(sc2n1)CC(C)CC3` (stereo not drawn) [Compound 7], the EC50 in data set [1] is over 10 µM. Also, the cytotoxic concentration (CC50) (usually the concentration giving 50% cytotoxicity) in data set [2] was over 10 µM.

Take `CCC1CCc2c(sc3nc(C)nc(Sc4nnnn4-c4ccccc4)c23)C1` (stereo not drawn) [Compound 8]: the EC50 in data set [1] is over 10 µM. The same compound returned a CC50 in data set [2] of over 10 µM.

In turn, `CCCC1CCc2c(sc3nc(C)nc(Sc4nnnn4-c4ccccc4)c23)C1` (stereo not drawn) [Compound 9] returned an EC50 in data set [1] of over 10 µM. In data set [2], the half-maximal cytotoxic concentration (CC50) is over 10 µM.

In data set [1], `Cc1nc(Sc2nnnn2-c2ccccc2)c2c3c(sc2n1)CC(C(C)(C)C)CC3` (stereo not drawn) [Compound 11] registered an EC50 of 8.25 µM. The compound further had a CC50 in data set [2] of under 1 µM.

As for `Cc1nc(Sc2nnnn2-c2ccccc2)c2c3c(sc2n1)CC(F)(F)CC3` [Compound 12], in data set [1], the EC50 worked out at 1.35 µM. Besides, the CC50 in data set [2] is under 1 µM.

Compound `Cc1nc(Sc2nnnn2-c2ccccc2)c2c3c(sc2n1)CC(C(=O)O)CC3` (stereo not drawn) [Compound 14] yielded an EC50 in data set [1] of over 20 µM. Moreover, the CC50 in data set [2] was over 10 µM.

In data set [1], `Cc1nc(Sc2nnnn2-c2ccccc2)c2c3c(sc2n1)CC(C(=O)NC1CCOCC1)CC3` (stereo not drawn) [Compound 15] yielded an EC50 of over 10 µM. The CC50 in data set [2] was under 10 µM.

Regarding `Cc1cccc(NC(=O)C2CCc3c(sc4nc(C)nc(Sc5nnnn5-c5ccccc5)c34)C2)c1` (stereo not drawn) [Compound 16], the EC50 in data set [1] was over 10 µM. The half-maximal cytotoxic concentration (CC50) in data set [2] is under 10 µM.

`Cc1nc(Sc2nnnn2-c2ccccc2)c2c3c(sc2n1)CC(C(=O)Nc1ccc(C(C)C)cc1)CC3` (stereo not drawn) [Compound 17]: the EC50 in data set [1] was over 10 µM. This compound also showed a 50% cytotoxic concentration (CC50) in data set [2] of under 1 µM.

For `Cc1nc(Sc2nnnn2-c2ccccc2)c2c3c(sc2n1)CC(C(=O)NCc1ccccc1)CC3` (stereo not drawn) [Compound 18], it took 12.6 µM to reach a half-maximal effect in data set [1] (EC50). The compound also showed a CC50 in data set [2] of over 10 µM.

For the compound `Cc1nc(Sc2nnnn2-c2ccccc2)c2c3c(sc2n1)CC(C(=O)Nc1cccc(Cl)c1)CC3` (stereo not drawn) [Compound 19], in data set [1], the EC50 was over 10 µM. In data set [2], this compound returned a CC50 of under 10 µM.

The compound `Cc1nc(Sc2nnnn2-c2ccccc2)c2c3c(sc2n1)CC(C(=O)Nc1ccc(Br)cc1)CC3` (stereo not drawn) [Compound 20] returned an EC50 in data set [1] of over 10 µM. Also, the CC50 in data set [2] is under 10 µM.

Consider `Cc1nc(Sc2nnnn2-c2ccccc2)c2c3c(sc2n1)CC(C(=O)Nc1nccs1)CC3` (stereo not drawn) [Compound 21], for which the EC50 in data set [1] is over 10 µM. In addition, the 50% cytotoxic concentration (CC50) in data set [2] was under 10 µM.

Compound `Cc1nc(Sc2nnnn2-c2ccccc2)c2c3c(sc2n1)CC(C(=O)Nc1ncc(C)s1)CC3` (stereo not drawn) [Compound 22] displayed an EC50 in data set [1] of 9.06 µM. In data set [2], this compound yielded a CC50 of 4.32 µM. In addition, in data set [3], the “inhibition of mRNA expression of RORγt” value was “significant inhibitory effects”. Further, the “inhibition … of IL-17A (in words)” value in data set [4] is given as “significant inhibitory effects”.

The compound `Cc1nc(Sc2nnnn2-c2ccccc2)c2c3c(sc2n1)CC(C(=O)Nc1cccnc1)CC3` (stereo not drawn) [Compound 23] displayed an EC50 in data set [1] of over 10 µM. For the same compound, the CC50 in data set [2] is under 5 µM.

With `Cc1nc(Sc2nnnn2-c2ccccc2)c2c3c(sc2n1)CC(C(=O)Nc1ccc(F)cn1)CC3` (stereo not drawn) [Compound 24], the EC50 in data set [1] was over 10 µM. This compound returned a CC50 in data set [2] of under 10 µM.

In the case of `Cc1nc(Sc2nnnn2-c2ccccc2)c2c3c(sc2n1)CC(C(=O)Nc1nc2ccc(F)cc2s1)CC3` (stereo not drawn) [Compound 25], the concentration giving a half-maximal response (EC50) in data set [1] was over 10 µM. Moreover, the CC50 in data set [2] is under 5 µM.

With `O=C(Cc1nc(Sc2nnnn2-c2ccccc2)c2c3c(sc2n1)CCCC3)Nc1nc2ccccc2[nH]1` [Compound 31], in data set [1] (FIG. 20), the “inhibiting RORγt transcription activity (in words)” value was “significant effect”. Moreover, the EC50 in data set [1] turned out to be 0.85 µM. In data set [2], the CC50 came out at 9.18 µM. For the same compound, the “inhibition of mRNA expression of RORγt” value in data set [3] was “significant inhibitory effects”. Further, the “inhibition … of IL-17A (in words)” value in data set [4] is recorded as “significant inhibitory effects”.

In the case of `CC(=O)Nc1nc(C)c(S(=O)(=O)Nc2ccc(C(O)(C(F)(F)F)C(F)(F)F)cc2)s1` [SR1001], the “reduction of clinical symptoms of EAE in vivo” value in data set [5] is listed as “only reduce the clinical symptoms of EAE slightly”. The “selectivity (interaction with other RORs)” value in data set [6] is recorded as “poor selectivity”. Besides, the “inhibition of differentiation of Th17 cells in vitro” value in data set [7] is given as “effectively inhibit the differentiation of Th17 cells”.
